Assay results as given in patent publication US9073858B2, “Methods of targeted drug development” (priority 2010, dated 2015).
Like-named read-outs stand apart in the source and are kept apart here.

Legend:
[1] = tested on: MDBK line; assay: MTT Cell Proliferation Assay, MDBK line; type: cell-based, bovine; conditions: Bos taurus, MDBK
Text: (§1) The following example describes the MTT Cell Proliferation Assay.
(§2) The MTT Cell Proliferation Assay is a colorimetric assay system that measures the reduction of the tetrazolium salt MTT (3-(4,5-dimethylthiazol-2-yl)-2,5-diphenyltetrazolium bromide) into insoluble formazan crystals, produced by the mitochondria of viable cells. […] The color can then be quantified by spectrophotometric means. Among the applications for the method are drug sensitivity, cytotoxicity, response to growth factors, and cell activation. The reduction of tetrazolium salts is now recognized as a safe, accurate alternative to radiometric testing.
(§3) Two replicates on each cell plate and 2 duplicate plates gave 4 individual replicates of each concentration, in each cell line. Concentrations were diluted in 100% DMSO from 25 mM stocks.
(§4) Twelve 96 well plates of each cell line were plated. Plating was done by dislodging cells as in passage protocol, counting on a hemocytometer, re-suspending in standard growth media, and plating using a multichannel pippetor.
(§5) 16 μl of 25 mM stock+34 μl DMSO=8 mM starting concentrations, and serial diluted as with test compounds in same plate. […] Two replicates of each concentrations was run on each cell plate. All compound addition and cell treatments were done using aseptic technique under a laminar flow aseptic hood.
(§6) Control: 0.5% DMSO in treatment media was used as the control.
(§7) MTT dye (Thiazolyl Blue Tetrazolium Bromide, Sigma cat # M5655) stock was prepared in bulk and stored at 4° C. for use: 5 mgs/ml sterile PDS, shielded from light. 4 ul of this stock per 100 uls treatment media per well was used.
(§8) Plates were incubated overnight prior to treatment, with treatment day=Day 0. Compound treatments were prepared prior to washing cells to minimize time cells were dry at room temperature after final aspiration. Compounds were diluted in 100% DMSO in 96 well polypropylene plates:40 μl 25 mM stock+10 μl DMSO=20 mM; 20 μl of 20 mM+30 μl DMSO=8 mM; 20 μl of 8 mM+30 μl DMSO=3.2 mM; 20 μl of 3.2 mM+30 μl DMSO=1.3 mM; 20 μl of 1.3 mM+30 μl DMSO=0.51 mM.
(§9) 5.0 μl/ml were added to treatment media, in sterile, 2.2 ml deep well plates=0.5% dmso final. Ten μl of each dmso concentration was added to 2.0 ml of treatment media and then mixed using a 1200 μl multichannel pipettor. Cell plates were treated from the deep well plates. Treatment media was standard growth media containing 0.5% FBS and standard additions. This reduced FBS concentration allowed for a slower growth rate in cells.
(§10) Media was aspirated from cell plates, and washed with 200 μl/well sterile PBS. Aspirated PBS wash, and cell plates were treated with 200 μl of compound/treatment media per well, and incubated at 37° C., 5% CO2 for 3 days.
(§11) Prior to harvesting, visual observations were made under an inverted microscope. Plates were harvested by: aspirating the growth media; adding back MTT dye/100 μl treatment media; and incubating plates at 37° C. for 1 hour. MTT dye was aspirated. 100 μl/well dmso was added, and then shaken on a Bellco plate shaker for 5 minutes, at 4.5 setting.
(§12) Plates were read in a Tecan Sunrize UV plate reader, at 560 nm. Settings: Read mode, Outside Normal 2 sec; Shake settle time 3 sec. Data is reported as % inhibition, calculated for individual plates using control values from that plate.

[2] = tested on: epithelial carcinoma A431 cell line; assay: MTT Cell Proliferation Assay, A431 cell line; type: cell-based; conditions: for MTT (10 Point follow-up) ratio / MTT-72 h A431/MDBK (ratio): value in brackets; for MTT (10 Point follow-up) ratio: numerically MDBK over A431; for IC50: Homo sapiens; for MTT-72 h A431/MDBK (ratio): numerically MDBK value over A431 value
Text: as §1, §2, §3, §4, §5, §6, §7, §8, §9, §10, §11, §12

[3] = target: T1, EGFR (Homo sapiens, UniProt P00533); assay: EGFR in-cell Western (ICW) screening protocol; type: cell-based; parameters: unit not given here; conditions: for ICW Screen: initial screen
T1 construct: endogenous in cells; host or cells: A431 cells (ATCC CRL-1555)
T1 sequence (P00533 25-1210): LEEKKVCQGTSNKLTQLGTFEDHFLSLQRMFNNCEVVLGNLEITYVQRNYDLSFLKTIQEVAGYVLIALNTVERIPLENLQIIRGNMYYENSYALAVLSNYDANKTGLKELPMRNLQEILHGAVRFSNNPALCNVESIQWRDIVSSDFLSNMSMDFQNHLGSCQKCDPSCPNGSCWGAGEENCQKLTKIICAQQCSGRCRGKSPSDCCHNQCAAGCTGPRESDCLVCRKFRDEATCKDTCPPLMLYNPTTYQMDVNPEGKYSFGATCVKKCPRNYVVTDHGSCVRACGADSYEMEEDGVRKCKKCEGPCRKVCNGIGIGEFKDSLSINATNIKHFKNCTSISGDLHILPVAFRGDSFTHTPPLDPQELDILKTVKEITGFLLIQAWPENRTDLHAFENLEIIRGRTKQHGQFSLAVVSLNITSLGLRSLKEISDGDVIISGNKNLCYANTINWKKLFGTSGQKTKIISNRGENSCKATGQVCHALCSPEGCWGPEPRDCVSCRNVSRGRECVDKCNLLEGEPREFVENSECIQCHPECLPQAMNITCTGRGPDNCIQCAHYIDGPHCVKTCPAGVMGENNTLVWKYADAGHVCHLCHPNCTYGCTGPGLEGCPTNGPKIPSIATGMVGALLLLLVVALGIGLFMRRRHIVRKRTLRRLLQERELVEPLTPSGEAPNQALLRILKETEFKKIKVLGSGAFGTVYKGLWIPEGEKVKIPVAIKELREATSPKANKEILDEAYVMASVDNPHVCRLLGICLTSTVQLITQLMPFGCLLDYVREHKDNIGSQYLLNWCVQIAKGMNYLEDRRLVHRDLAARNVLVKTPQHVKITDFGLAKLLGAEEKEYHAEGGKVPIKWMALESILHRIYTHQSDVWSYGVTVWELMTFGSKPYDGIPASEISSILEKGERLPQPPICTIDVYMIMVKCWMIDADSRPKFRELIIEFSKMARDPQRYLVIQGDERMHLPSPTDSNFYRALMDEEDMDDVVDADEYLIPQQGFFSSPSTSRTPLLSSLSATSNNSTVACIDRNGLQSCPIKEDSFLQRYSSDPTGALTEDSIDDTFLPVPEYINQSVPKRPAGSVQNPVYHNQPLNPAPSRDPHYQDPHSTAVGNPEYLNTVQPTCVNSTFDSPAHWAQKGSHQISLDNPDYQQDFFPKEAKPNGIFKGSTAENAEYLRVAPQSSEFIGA
Protocol: The following example describes general EGFR in-cell Western (ICW) screening protocol.
Two cell plates were prepared for each compound plate.
Serum Starvation: The cells were serum starved prior to compound addition. […] The cell plates were incubated at 37° C./5% CO2 for 2 hours.
Prepared compound plates were stored at RT prior to use and at 4° C. long term.
Compound Dilution Plate Preparation: 250 μl of DMEM supplemented with 1 mg/ml BSA (Sigma A3059-10G) was added to the appropriate wells of a 96 well plate to prepare the compound dilution plates. Using a multichannel pipettor, 1.25 μl of compound from the compound plate was transferred into the compound dilution plate.
Compound Addition: The starve media was removed from the cell plates by aspiration. Using a multichannel pipettor, the compound dilution plates were mixed by pipetting up and down three times. 50 μl of mixed, diluted compound was added to each of two rows/columns on each of two cell plates. The cell plates with compound were incubated at 37° C./5% CO2 for 4 hours.
50 μl of 20 or 0 ng/ml EGF was added to the appropriate wells without the removal of compound. The compound and EGF were mixed by pipetting up and down three times.
The plates were incubated at RT for 20 min without shaking. The Fixation Solution was removed by aspiration and the plates washed four times with 200 μl each of Triton Wash Solution (1×PBS, Sigma P3813-10PK, and 0.1% Triton X-100, T8787-50ML) for 5 min with gentle shaking.
The block was removed by aspiration and 50 μl of diluted primary Ab mix was added. The plates were incubated at 4° C. overnight with gentle shaking. The plates were washed five times with 200 μl of PBST (1×PBS, Sigma P3813-10PK, and 0.1% Tween-20, Sigma P9416-50ML) for 5 min each with shaking. 50 μl of diluted secondary Ab mix was added and the plates incubated at RT for 1 h with shaking. The plates were washed 5× with 200 μl of PBST for 5 min each with shaking. One final wash with 200 μl of PBS (Sigma P3813-10PK) for 5 min with shaking was performed prior to scanning.
In some screening assays, the dilution of the secondary Ab conjugates was 1/800 rather than 1/1200.
Plate Scanning: The plates were scanned on an Odyssey Infrared Imaging System from LI-COR Biosciences. The focus offset was set at 3.5 mm and the scanning intensity set at 3 for the 700 channel and 7 for the 800 channel.
Data Analysis: The % of Maximum and % Inhibition values were calculated as follows. 700 Channel=signal for total EGFR (used to control for variation in cell number). 800 Channel=signal for phosphorylated EGFR. 800−EGF=basal level EGFR phosporylation+non-specific signal (no compound). 800+EGF=800−EGF+EGF dependent EGFR receptor phosphorylation (no compound). 700/800com=700 or 800 channel signals with compound. % Maximum={[(800com/700com)−(800−EGF/700−EGF)]/[(800+EGF/700+EGF)−(800−EGF/700−EGF)]}×100%. % Inhibition=100%−(% Maximum).

[4] = 10 point follow-up, second value of pair, read-out: MTT (10 Point follow-up) MDBK
[5] = A-431, 10 point follow-up, first value of pair, read-out: MTT (10 Point follow-up) A431
[6] = 72 h, second value of A431/MDBK pair, read-out: MTT-72 h MDBK
[7] = A-431, 72 h, 72 h, first value of A431/MDBK pair, read-out: MTT-72 h A431

Structure (SMILES)	IC50 [1, 4] [µM]	MTT (10 Point follow-up) ratio ([2]; 10 point follow-up)	IC50 [2, 5] [µM]	ICW Screen [3]	IC50 [1, 6] [µM]	MTT-72 h A431/MDBK (ratio) ([2]; 72 h)	IC50 [2, 7] [µM]	ICW Re-Test [3]	MTT (10 Point follow-up) % Max ([2]; 10 point follow-up, maximal effect) [%]
Cc1cccc(NC(c2cccc(Cl)c2)c2ccc3cccnc3c2O)n1 (stereo not drawn) [compound 10043]	5.29	0.97	5.46	34.63					
Oc1c(C(Nc2ccc(F)cc2)c2ccncc2)ccc2cccnc12 (stereo not drawn) [compound 11153]				28.24	5.58	0.43	13.1	20.64	
O=[N+]([O-])c1cccc(NC(c2ccco2)c2ccc3cccnc3c2O)c1 (stereo not drawn) [compound 11056]				32.48	5.94	0.94	6.35	18.32	
CCCC(=O)NC(c1ccc(OC)c(OC)c1)c1cc(Cl)c2cccnc2c1O (stereo not drawn) [compound 10949]				26.99	5.79	1.03	5.63		
CCN1CCN(C(c2ccc(C(F)(F)F)cc2)c2ccc3cccnc3c2O)CC1 (stereo not drawn) [compound 10535]	2.91	1.43	2.04	44.02	3.95	1.45	2.72	52.63	
Oc1c(C(Nc2cccnc2)c2cccs2)ccc2cccnc12 (stereo not drawn) [compound 10315]	0.783	1.12	0.697	80.77	5.69	1.26	4.52	92.46	
Oc1cccnc1NC(c1ccc(F)cc1)c1ccc2cccnc2c1O (stereo not drawn) [compound 10509]	1.95	1.56	1.25	31.55	2.05	1.60	1.28		
Oc1c(C(Nc2cccnc2)c2ccc(C(F)(F)F)cc2)ccc2cccnc12 (stereo not drawn) [compound 10942]				56.15	36.2	1.09	33.3	95.43	
OCCN1CCN(C(c2cccs2)c2ccc3cccnc3c2O)CC1 (stereo not drawn) [compound 10546]				25.23	5.92	0.84	7.03		
COc1ccc(NC(c2ccccn2)c2ccc3cccnc3c2O)cc1 (stereo not drawn) [compound 11103]				50.55	36.4	1.75	20.8	45.86	
Oc1c(C(Nc2ccccn2)c2c(F)cccc2Cl)cc(Cl)c2cccnc12 (stereo not drawn) [compound 10105]	0.85	1.40	0.605	3.88	1.45	1.12	1.29		77
Oc1c(C(Nc2cccc(F)c2)c2ccccn2)ccc2cccnc12 (stereo not drawn) [compound 11105]	6.5	1.38	4.72	48.25	7.03	1.29	5.46	17.88	
Oc1c(C(Nc2cccc(Cl)c2)c2ccncc2)ccc2cccnc12 (stereo not drawn) [compound 11042]				53.72	3.72	1.06	3.93	71.32	
CN1CCN(C(c2ccccn2)c2ccc3cccnc3c2O)CC1 (stereo not drawn) [compound 10548]				31.03	8.07	0.89	9.05		
Oc1ccccc1C(Nc1ccccn1)c1ccc2cccnc2c1O (stereo not drawn) [compound 10427]				43.39	4.82	0.87	5.56	43.82	
Oc1c(C(Nc2cccc(Cl)c2)c2cccnc2)ccc2cccnc12 (stereo not drawn) [compound 11057]				44.4	7.86	0.98	7.99	73.29	
